For 1 molecule, IC50 results are on record in paper PMC2734176, “The Aurora Kinase in Trypanosoma brucei Plays Distinctive Roles in Metaphase-Anaphase Transition and Cytokinetic Initiation” (PLoS Pathogens, 2009).

The target of this test is T1, TbAUK1 (recombinant GST-tagged TbAUK1) (Trypanosoma brucei, UniProt Q384J7).
T1 construct: gene AUK1; no tag cleavage mentioned; tested without TbCPC1/TbCPC2
T1 sequence (Q384J7 1-309): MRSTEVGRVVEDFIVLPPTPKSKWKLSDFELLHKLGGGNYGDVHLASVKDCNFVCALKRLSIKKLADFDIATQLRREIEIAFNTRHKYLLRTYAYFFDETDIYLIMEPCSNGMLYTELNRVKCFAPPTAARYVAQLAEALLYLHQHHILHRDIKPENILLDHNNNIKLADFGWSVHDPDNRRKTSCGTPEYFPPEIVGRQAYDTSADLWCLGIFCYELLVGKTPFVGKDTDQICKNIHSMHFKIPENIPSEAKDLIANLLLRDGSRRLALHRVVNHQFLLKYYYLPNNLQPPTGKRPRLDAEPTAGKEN
Briefly: in vitro kinase assay, […] phosphorylation of GST-histone H3, SDS-PAGE and Phosphor-Imager. In kind it is biochemical.

Broadly, the IC50 is the concentration needed to halve the response being measured. `Cc1cc(Nc2cc(N3CCN(C)CC3)nc(Sc3ccc(NC(=O)C4CC4)cc3)n2)[nH]n1` [VX-680]: the IC50 turned out to be 190 nM.
